Test results from ChEMBL document CHEMBL1141418 (J Med Chem, 2007).
Positions of bridges follow the written chain, without caps; N, C: chain ends. Non-standard residues stand in square brackets, D forms with d. Residues, ends and D or L forms follow the SMILES beside them. Orn = NCCC[C@H](N)C(=O)O; Dab = NCC[C@H](N)C(=O)O; Dap = NC[C@H](N)C(=O)O; Mpa = O=C(O)CCS

Assays:
[1] = species: Rattus norvegicus; test: Antidiuretic activity in rat; format: functional, Urine
[2] = species: Rattus norvegicus; test: Vasopressor activity in rat; format: functional
[3] = molecular target: T1, Oxytocin receptor (Homo sapiens) (UniProt P30559); test: Activity at OT receptor assessed as oxytocic activity in absence of magnesium; format: functional; conditions: filed as agonist
T1 sequence (whole entry): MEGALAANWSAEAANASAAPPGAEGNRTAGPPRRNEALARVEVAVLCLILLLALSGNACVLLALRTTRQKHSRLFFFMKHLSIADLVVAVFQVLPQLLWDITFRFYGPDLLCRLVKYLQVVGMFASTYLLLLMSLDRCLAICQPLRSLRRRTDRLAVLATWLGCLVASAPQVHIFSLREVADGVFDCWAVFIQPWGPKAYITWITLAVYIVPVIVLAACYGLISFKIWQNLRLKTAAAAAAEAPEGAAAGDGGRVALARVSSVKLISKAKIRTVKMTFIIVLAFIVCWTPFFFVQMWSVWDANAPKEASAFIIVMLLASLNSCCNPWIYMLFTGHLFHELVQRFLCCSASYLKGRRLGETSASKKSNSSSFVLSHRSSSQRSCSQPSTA

[4] = molecular target: Vasopressin V2 receptor (Rattus norvegicus, UniProt Q00788); test: Displacement of [3H]AVP from vasopressin V2 receptor in rat kidney membranes; format: cell membranes, Membrane
Sequence of Vasopressin V2 receptor (Q00788 whole entry): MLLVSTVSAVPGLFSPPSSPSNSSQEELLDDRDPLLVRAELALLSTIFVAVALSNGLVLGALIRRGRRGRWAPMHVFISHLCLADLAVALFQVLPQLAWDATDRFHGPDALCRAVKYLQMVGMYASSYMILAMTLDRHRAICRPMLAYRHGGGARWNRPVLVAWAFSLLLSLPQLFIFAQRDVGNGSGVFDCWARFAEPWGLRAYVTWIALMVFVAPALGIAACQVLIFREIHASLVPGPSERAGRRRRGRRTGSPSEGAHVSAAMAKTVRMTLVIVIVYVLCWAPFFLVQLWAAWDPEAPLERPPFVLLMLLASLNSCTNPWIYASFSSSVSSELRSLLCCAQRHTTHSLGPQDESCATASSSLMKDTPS

[5] = molecular target: Vasopressin V1a receptor (Rattus norvegicus, UniProt P30560); test: Displacement of [3H]AVP from vasopressin V1a receptor in rat liver membrane; format: cell membranes
Sequence of Vasopressin V1a receptor (P30560 whole entry): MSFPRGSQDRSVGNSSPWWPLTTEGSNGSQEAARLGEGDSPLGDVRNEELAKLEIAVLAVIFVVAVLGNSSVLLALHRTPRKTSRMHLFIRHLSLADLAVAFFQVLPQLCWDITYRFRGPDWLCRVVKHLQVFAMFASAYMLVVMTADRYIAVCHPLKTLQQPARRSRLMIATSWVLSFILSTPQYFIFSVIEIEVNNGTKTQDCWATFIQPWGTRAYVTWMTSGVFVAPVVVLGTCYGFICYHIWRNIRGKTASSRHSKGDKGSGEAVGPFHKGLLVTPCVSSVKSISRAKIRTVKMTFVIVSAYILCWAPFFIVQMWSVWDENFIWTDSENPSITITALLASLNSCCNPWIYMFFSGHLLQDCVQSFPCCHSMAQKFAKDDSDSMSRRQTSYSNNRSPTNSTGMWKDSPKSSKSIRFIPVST

[6] = molecular target: T2, Oxytocin receptor (Rattus norvegicus, UniProt P70536); test: Displacement of [3H]AVP from rat OT receptor expressed in CHO cells; format: cell-based
T2 sequence (P70536 whole entry): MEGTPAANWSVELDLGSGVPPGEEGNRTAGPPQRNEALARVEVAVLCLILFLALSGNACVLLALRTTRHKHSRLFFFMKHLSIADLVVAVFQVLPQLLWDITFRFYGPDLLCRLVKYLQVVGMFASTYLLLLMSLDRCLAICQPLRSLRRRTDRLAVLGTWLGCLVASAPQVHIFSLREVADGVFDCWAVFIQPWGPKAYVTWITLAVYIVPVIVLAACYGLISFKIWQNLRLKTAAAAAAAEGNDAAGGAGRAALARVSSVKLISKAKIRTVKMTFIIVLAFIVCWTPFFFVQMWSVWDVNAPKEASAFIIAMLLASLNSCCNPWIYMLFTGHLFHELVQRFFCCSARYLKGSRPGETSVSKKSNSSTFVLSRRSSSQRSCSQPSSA

SMILES | Activity [3] | Ki [4] | Ki [5] | Activity [1] | Activity [2] | Activity ([2]; filed as antagonist) | Ki [6]
NCCCC[C@H](NC(=O)[C@@H]1CCCN1C(=O)[C@@H]1CSSCCC(=O)N[C@@H](Cc2ccc(O)cc2)C(=O)N[C@@H](Cc2ccccc2)C(=O)N[C@@H](CCC(N)=O)C(=O)N[C@@H](CC(N)=O)C(=O)N1)C(=O)NCC(N)=O | 12 U/mg | – | – | 550 U/mg | 145 U/mg | – | –
CC(C)C[C@@H]1NC(=O)[C@H](Cc2ccccc2)NC(=O)[C@H](Cc2ccc(O)cc2)NC(=O)CCSSC[C@@H](C(=O)N2CCC[C@H]2C(=O)N[C@@H](CCCN)C(=O)NCC(N)=O)NC(=O)[C@H](CC(N)=O)NC1=O ([Mpa]YFLNCP[Orn]G-NH2; disulfide 1-6) | – | 425 nM (antagonist) | 1400 nM (antagonist) | 5.7 U/mg | 3.1 U/mg | – | –
NCC[C@H](NC(=O)[C@@H]1CCCN1C(=O)[C@@H]1CSSCCC(=O)N[C@@H](Cc2ccc(O)cc2)C(=O)N[C@@H](Cc2ccccc2)C(=O)N[C@@H](CCC(N)=O)C(=O)N[C@@H](CC(N)=O)C(=O)N1)C(=O)NCC(N)=O ([Mpa]YFQNCP[Dab]G-NH2; disulfide 1-6) | 25 U/mg | – | – | 463 U/mg | 385 U/mg | – | –
NC(=O)CNC(=O)[C@H](CCCN=C(N)N)NC(=O)[C@@H]1CCCN1C(=O)[C@@H]1CSSCCC(=O)N[C@@H](Cc2ccc(O)cc2)C(=O)N[C@@H](Cc2ccccc2)C(=O)N[C@@H](CCCN=C(N)N)C(=O)N[C@@H](CC(N)=O)C(=O)N1 ([Mpa]YFRNCPRG-NH2; disulfide 1-6) | – | – | – | 748.32 U/mg | 159.93 U/mg | – | –
CC(C)[C@@H]1NC(=O)[C@H](Cc2ccccc2)NC(=O)[C@H](Cc2ccc(O)cc2)NC(=O)CCSSC[C@@H](C(=O)N2CCC[C@H]2C(=O)N[C@@H](CCCN=C(N)N)C(=O)NCC(N)=O)NC(=O)[C@H](CC(N)=O)NC1=O ([Mpa]YFVNCPRG-NH2; disulfide 1-6) | – | 0.3 nM (antagonist) | 60 nM (antagonist) | – | – | – | –
CC(C)[C@@H]1NC(=O)[C@H](Cc2ccccc2)NC(=O)[C@H](Cc2ccc(O)cc2)NC(=O)CCSSC[C@@H](C(=O)N2CCC[C@H]2C(=O)N[C@@H](CCCNC(=N)N)C(=O)NCC(N)=O)NC(=O)[C@H](CC(N)=O)NC1=O ([Mpa]YFVNCPRG-NH2; disulfide 1-6) | – | – | – | 1150 U/mg | 51 U/mg | – | –
CC(C)[C@@H]1NC(=O)[C@H](Cc2ccccc2)NC(=O)[C@H](Cc2ccc(O)cc2)NC(=O)CCSSC[C@@H](C(=O)N2CCC[C@H]2C(=O)N[C@H](CCCNC(=N)N)C(=O)NCC(N)=O)NC(=O)[C@H](CC(N)=O)NC1=O ([Mpa]YFVNCP[dR]G-NH2; disulfide 1-6) | – | 0.26 nM (antagonist) | 316 nM (antagonist) | 1230 U/mg | <0.01 U/mg | – | –
N=C(N)NCCC[C@@H](NC(=O)[C@@H]1CCCN1C(=O)[C@@H]1CSSCCC(=O)N[C@@H](Cc2ccc(O)cc2)C(=O)N[C@@H](Cc2ccccc2)C(=O)N[C@@H](CCC(N)=O)C(=O)N[C@@H](CC(N)=O)C(=O)N1)C(=O)NCC(N)=O (stereo in doubt; form 1) [DESMOPRESSIN] | – | 0.8 nM (antagonist) | – | 1745 U/mg | 346 U/mg | – | –
N=C(N)NCCC[C@@H](NC(=O)[C@@H]1CCCN1C(=O)[C@@H]1CSSCCC(=O)N[C@@H](Cc2ccc(O)cc2)C(=O)N[C@@H](Cc2ccccc2)C(=O)N[C@@H](CCC(N)=O)C(=O)N[C@@H](CC(N)=O)C(=O)N1)C(=O)NCC(N)=O (stereo in doubt; form 2) [DESMOPRESSIN] | – | 0.3 nM (antagonist) | – | 1200 U/mg | 0.39 U/mg | – | –
NC(=O)CC[C@@H]1NC(=O)[C@H](Cc2ccccc2)NC(=O)[C@H](Cc2ccc(O)cc2)NC(=O)[C@@H](N)CSSC[C@@H](C(=O)N2CCC[C@H]2C(=O)N[C@@H](CCCN=C(N)N)C(=O)NCC(N)=O)NC(=O)[C@H](CC(N)=O)NC1=O [VASOPRESSIN] | – | – | – | – | – | – | 1.17 nM (antagonist)

Continued, in another order:

Activity [3] | Ki [4] | Ki [5] | SMILES | Activity [1] | Activity [2] | Activity ([2]; filed as antagonist) | Ki [6]
15 U/mg | – | – | NCCC[C@H](NC(=O)[C@@H]1CCCN1C(=O)[C@@H]1CSSCCC(=O)N[C@@H](Cc2ccc(O)cc2)C(=O)N[C@@H](Cc2ccccc2)C(=O)N[C@@H](CCC(N)=O)C(=O)N[C@@H](CC(N)=O)C(=O)N1)C(=O)NCC(N)=O | 486 U/mg | 355 U/mg | – | –
– | 69 nM (antagonist) | 450 nM (antagonist) | N=C(N)NCCC[C@H](NC(=O)[C@@H]1CCCN1C(=O)[C@@H]1CSSCCC(=O)N[C@H](Cc2cccnc2)C(=O)N[C@@H](Cc2ccccc2)C(=O)N[C@@H](CCC(N)=O)C(=O)N[C@@H](CC(N)=O)C(=O)N1)C(=O)NCC(N)=O | 1 U/mg | – | Antagonist | –
– | 3.1 nM (antagonist) | 1250 nM (antagonist) | CC(C)C[C@@H]1NC(=O)[C@H](Cc2ccccc2)NC(=O)[C@H](Cc2ccc(O)cc2)NC(=O)CCSSC[C@@H](C(=O)N2CCC[C@H]2C(=O)N[C@@H](CCCN=C(N)N)C(=O)NCC(N)=O)NC(=O)[C@H](CC(N)=O)NC1=O ([Mpa]YFLNCPRG-NH2; disulfide 1-6) | – | – | – | –
0.67 U/mg | – | – | CC(C)C[C@@H]1NC(=O)[C@H](Cc2ccccc2)NC(=O)[C@H](Cc2ccc(O)cc2)NC(=O)CCSSC[C@@H](C(=O)N2CCC[C@H]2C(=O)N[C@@H](CCCNC(=N)N)C(=O)NCC(N)=O)NC(=O)[C@H](CC(N)=O)NC1=O ([Mpa]YFLNCPRG-NH2; disulfide 1-6) | 378 U/mg | 3.11 U/mg | – | –
0.27 U/mg | 210 nM (antagonist) | 1000 nM (antagonist) | CC(C)C[C@@H]1NC(=O)[C@H](Cc2ccccc2)NC(=O)[C@H](Cc2ccc(O)cc2)NC(=O)CCSSC[C@@H](C(=O)N2CCC[C@H]2C(=O)N[C@@H](CCN)C(=O)NCC(N)=O)NC(=O)[C@H](CC(N)=O)NC1=O ([Mpa]YFLNCP[Dab]G-NH2; disulfide 1-6) | 5.7 U/mg | 3.5 U/mg | – | 41 nM (antagonist)
0.9 U/mg | – | – | NC[C@H](NC(=O)[C@@H]1CCCN1C(=O)[C@@H]1CSSCCC(=O)N[C@@H](Cc2ccc(O)cc2)C(=O)N[C@@H](Cc2ccccc2)C(=O)N[C@@H](CCC(N)=O)C(=O)N[C@@H](CC(N)=O)C(=O)N1)C(=O)NCC(N)=O ([Mpa]YFQNCP[Dap]G-NH2; disulfide 1-6) | 165 U/mg | 8.7 U/mg | – | –
– | 0.2 nM (antagonist) | 12.9 nM (antagonist) | N=C(N)NCCC[C@@H]1NC(=O)[C@H](Cc2ccccc2)NC(=O)[C@H](Cc2ccc(O)cc2)NC(=O)CCSSC[C@@H](C(=O)N2CCC[C@H]2C(=O)N[C@@H](CCCN=C(N)N)C(=O)NCC(N)=O)NC(=O)[C@H](CC(N)=O)NC1=O ([Mpa]YFRNCPRG-NH2; disulfide 1-6) | – | – | – | –
– | 3.4 nM (antagonist) | 900 nM (antagonist) | NCCC[C@@H]1NC(=O)[C@H](Cc2ccccc2)NC(=O)[C@H](Cc2ccc(O)cc2)NC(=O)CCSSC[C@@H](C(=O)N2CCC[C@H]2C(=O)N[C@@H](CCCN=C(N)N)C(=O)NCC(N)=O)NC(=O)[C@H](CC(N)=O)NC1=O ([Mpa]YF[Orn]NCPRG-NH2; disulfide 1-6) | 260.32 U/mg | 1.54 U/mg | – | –
